How the values were obtained:
[1] = system: CQ resistant PfW2 strain; assay: SYBR Green I growth inhibition assay, P. falciparum W2 culture; assay type: cell-based; details: Plasmodium falciparum
Text: Antimalarial activity of all the listed Pht analogues was initially assessed on asynchronous cultures of P. falciparum 3D7 (Pf3D7) clone using the SYBR Green assay. […] The mean IC50 values are based on three separate experiments (Table 1).
The laboratory-adapted P. falciparum strains 3D7 (Africa; CQ sensitive) and W2 (Africa; CQ resistant), were acquired from Malaria Research and Reference Reagent Resource Center (MR4) (Manassas, VA, USA) and maintained with type O +ve erythrocytes suspended in continuous complete culture medium as described. Complete culture media consisted of 10.43 g/litre of RPMI 1640-HEPES supplemented with 10% (vol/vol) human AB serum, 92.6 mg/litre L-glutamine, 50 mg/liter hypoxanthine, 2 g/litre sodium bicarbonate (Sigma-Aldrich, St. Louis, MO). Incubation of cultures was at 37 °C and maintained in a low oxygen atmosphere (5% O2, 5% CO2, 90% N). The levels of parasitemia in the cultures were maintained at between 2 and 10%, with 5% hematocrit. Media was changed after every 24 hours and parasitemia monitored every 48 hours. Synchronous cultures were prepared by sorbitol lysis. Stock solutions of the Pht, Pht analogues, and DHA were prepared in absolute dimethyl sulfoxide (DMSO) while CQ was prepared in distilled water. The prepared drug stock solutions were used immediately or stored at −80 °C for not longer than one month before use. Stock solutions were further diluted in serum free RPMI 1640 media (stock solution solvent final conc. 0.05%) before performing a 2-fold serial dilution to achieve dose ranges of 0.2 µM to 100 µM (Pht and derivatives), 7.8 to 2,000 nM (CQ) and 0.17 to 87.5 nM (DHA). 25 μL of the drug diluents were aliquoted into 96 well plates and used immediately. Alternatively, the stock solutions were diluted in distilled water, 2-fold serial dilution performed on a 96 well plate and allowed to air dry in a laminar flow hood after which dried plates were stored at 4 °C until use. SYBR Green I assay technique with additional modification was used for drug susceptibility testing of the parasites. Parasite cultures of >1% parasitemia were diluted to 1% parasitemia and 2% hematocrit and 200 μL were transferred onto drug pre-dosed plates and incubated at 37 °C for 90 hours, [40]. […] Relative fluorescence units (RFU) were read using the Perkin Elmer Wallac 1420 fluorescence plate reader, with excitation and emission wavelengths of 485 nm and 535 nm respectively. The readouts values were aligned with corresponding drug doses and analysis performed by Graph-pad Prism software. The drug concentrations (x value) were transformed using X = Log[X] and plotted against the counts (y values) and the data analysed by non-linear regression (sigmoid dose-response/variable slope equation) to yield the IC50.

[2] = system: synchronized Pf3D7 strain cultures (rings, trophozoites); assay: Stage-specificity and parasitemia titres on synchronized Pf3D7 cultures (Giemsa smears); assay type: cell-based, Plasmodium falciparum; details: for effect on ring stage parasitemia: 6 hours post exposure of ring stages; for effect on ring stage parasitemia / effect on mature blood stage parasite titres (parasitemia): Fig. 5; for effect on mature blood stage parasite titres (parasitemia): 16 hours after incubation with trophozoite stage; for effect on progression from trophozoites to schizonts / schizont morphology: concentration = individual IC50, up to 16 hours exposure; for effect on ring-stage growth and morphology: newly synchronized rings, concentration = individual IC50, monitored at 6 and 12 hours
Protocol: Next, we sought to determine stage-specificity of the antiplasmodial activity of the four active analogues (6a, 6h, 6m and 6u) on synchronized Pf3D7 strain cultures at 2% hematocrit and 1% parasitemia, with concentrations corresponding to individual drug IC50. To determine the effect of the compounds on both early and late ring stage parasites, the treatment was conducted on newly synchronized rings for 12 hours, and drug effect on parasite growth and morphology was monitored at 6 and 12 hours after exposure. Similarly, early trophozoites were exposed to each compound and incubated for 16 hours, and monitored at 6 and 16 hours post-exposure. The effect of the compounds on parasite morphology and development was compared in exposed and unexposed drug wells (Figs 3 and 4).
Figure 5 Effect of Pht analogues on parasite growth titres (Note: Graphical description of the inhibitory effect of select analogues on parasite growth titres 6 hours after incubation with ring-stages and 16 hours after drug incubation with trophozoite stage. Parasitemia percentage was derived by counting the number of infected erythrocytes from a total of 2,000 erythrocytes on Giemsa stained thin smears from each experiment. Bar diagrams represent the average of three different experiments).

[3] = system: P. falciparum 3D7; assay: Fixed-ratio isobologram drug interaction assay with CQ/DHA, 3D7; assay type: cell-based, Plasmodium falciparum; details: Pf3D7
Protocol: (§1) A modified fixed-ratio isobologram method was used to assess interaction between CQ/DHA and Pht analogues. Briefly, a total of 5 solutions containing fixed-ratio mixtures of Pht derivatives with either CQ or DHA were prepared in the following ratios: 1:1, 2:1, 3:2, 2:3, and 1:4. The starting concentrations for ten 2 fold-serial dilutions across the microtiter plate were assigned so that the IC50 of each drug would be in the 5th serial dilution of the plate. Each drug was tested alone and at fixed ratios of its IC50. The assessment of drug interaction was based on the calculation of the fractional inhibitory concentration (FIC) of two drugs in the […]. FIC was calculated for each association by dividing the IC50 of the drug in the combination by the IC50 of the drug alone.

[4] = system: P. falciparum W2; assay: Fixed-ratio isobologram drug interaction assay with CQ/DHA, W2; assay type: cell-based, Plasmodium falciparum; details: PfW2
Protocol: as §1

| Structure (SMILES) | IC50 [1] | effect on ring stage parasitemia [2] | effect on mature blood stage parasite titres (parasitemia) [2] | effect on trophozoites ([2]; early trophozoites, concentration = individual IC50, 6 hours after exposure) | effect on progression from trophozoites to schizonts / schizont morphology ([2]; early trophozoites) | effect on ring-stage growth and morphology [2] | interaction when combined with CQ and DHA [3] | interaction when combined with CQ and DHA [4] |
| --- | --- | --- | --- | --- | --- | --- | --- | --- |
| CC[C@@H](C)[C@H](c1nc2ccccc2n1Cc1cn(-c2ccc(F)cc2)nn1)N1C(=O)c2ccccc2C1=O [Compound 6h] | 1300 nM | did not affect parasite growth | reduction in parasitemia | complete destruction of trophozoites | presence of schizonts with abnormal morphology | did not arrest ring-stage maturation | synergistic activity | synergistic activity |
| CC(C)C[C@H](c1nc2ccccc2n1Cc1c[nH]nn1)N1C(=O)c2ccccc2C1=O [Compound 6u] | 900 nM | reduction in ring stage parasitemia | negligible |  | did not interfere with development of parasite progression from trophozoites to schizonts | active against ring-stage forms | synergistic activity | synergistic activity |

Reference: paper PMC5532363, “Synergistic blending of high-valued heterocycles inhibits growth of Plasmodium falciparum in culture and P. berghei infection in mouse model” (Scientific Reports, 2017)
